In article PMC9254247, “Dual-sensitive antibacterial peptide nanoparticles prevent dental caries” (Theranostics, 2022) one finds MBIC50 data, which are given here for one compound.

The test system of this assay is S. mutans UA159 biofilm. The experiment in a line: Minimum biofilm inhibition concentration (MBIC50), MTT. The format is cell-based, Streptococcus mutans. The note with it: 24 h. The method, then:
Characterization analysis of pHly -1 NPs at different pHs. The morphology of pHly-1 NPs at pH 4.5 and 7.0were analyzed by TEM and AFM, respectively 3,4. TEM images were taken by a Tecnai G2 F20 microscope with an accelerating voltage of 100 kV. The final concentration of TEM samples of pHly -1 NPs was 100 μM. An 8 μL TEM sample was pipetted onto the carbon-coated copper grid surface for 3 min and removed by filter paper. Then, 8 μ L of 2 wt % uranyl acetate was dripped onto the grid for staining 3 min. After removing the droplet with filter paper, the grid was dried in a desiccator before measurement. […]
The secondary structure of pHly-1 NPs in different solutions at pH 4.5 and 7.0 was determined by Jasco-810 spectropolarimeter using 2 mm quartz slides at 25 °C.
According to the method reported in the literature5 to prepare l iposome required in the secondary structure test. […] All spectra were recorded with a wavelength interval of 0.5 nm. […] In addition, Zeta (ζ ) potentials and hydrodynamic sizes of pHly-1 NPs were measured using a Zetasizer (Malvern Instruments, UK). […]
RNA- seq Analysis. […] T he quality and quantity of the RNA were assessed by NanoDrop 2000/2000c (Thermo Scientific, Wilmington, DE, USA). RNA integrity number (RIN) was analyzed by Agilent 2100 Bioanalyzer (Agilent Technologies, Santa Clara, CA, USA). […] The cleaned reads were mapped to the S.mutans reference genome using Rockhooper26. […]

Regarding `[H]/N=C(\N/C(=N/[H])NCCCCCCNC(=N)NC(=N)Nc1ccc(Cl)cc1)Nc1ccc(Cl)cc1` [CHX, chlorhexidine], the MBIC50 runs as follows: (pH 5.5, BHI with 1% sucrose) 0.6 µM; (pH 7.0, BHI with 1% sucrose) 0.8 µM.
